Assay results from patent US20250057883A1, “CONTROLLABLE STIMULATION OF GENETICALLY ENGINEERED LYMPHOCYTES FOR THE TREATMENT OF CANCER” (THE TRUSTEES OF THE UNIVERSITY OF PENNSYLVANIA, priority 2021, published 2025).
Entries after “also recorded” stand apart in the source; their conditions may differ.

Key:
T cells expressing TPOR = assay: Stimulation of T cells expressing TPOR for 7 days, flow cytometry; format: cell-based, human; conditions: 0.1 μg/ml; for TPOR fraction after addition: enriched from 12.9%, FIG. 4 bottom panel
Procedure: (§1) FIG. 3: T cells transduced to express (i) the thrombopoietin receptor (TPOR) or (ii) the GCF receptor with a deletion at aa 715 (GCSFRd715) are active and can drive T cell proliferation via the non-canonical JAK2 pathway. T cells expressing GCSFRd715, TPOR, or the truncated NGFR as a control were stimulated for 7 days with IL-2/IL-7/IL-15 (all at 5 ng/ml; denoted as CK; positive control condition), 0.1 μg/ml recombinant thrombopoietin (TPO), 0.1 μg/ml TPO agonist eltrombopag (EP), or 0.1 μg/ml GCSF. Cell number (top) or percent transgenic cells (bottom) were quantified using flow cytometry at 7 days.
(§2) FIG. 4: Exemplary flow cytometry plots showing that exposure of transgenic cytokine receptor transduced cells to the cognate cytokine (i.e. GCSFRd715 to GCSF; TPOR to TPO or EP) leads to enrichment of CAR expressing cells at 7 days. Addition of GCSF enriched the GCSRFd715 transgenic cell fraction from 15.6% to 64.9% (top panel). Addition of TPO enriched the TPOR fraction from 12.9% to 82% and addition of EP enriched the TPOR fraction from 12.9% to 55.9% (bottom panel).
(§3) Healthy donor T cells were transduced to express (i) the thrombopoietin receptor (TPOR) or (ii) the GCF receptor with a deletion at aa 715 (GCSFRd715). T cells expressing GCSFRd715, TPOR, or the truncated NGFR as a control were stimulated for 7 days with IL-2/IL-7/IL-15 (all at 5 ng/ml; denoted as CK; positive control condition), 0.1 μg/ml recombinant thrombopoietin (TPO), 0.1 μg/ml TPO agonist eltrombopag (EP), or 0.1 μg/ml GCSF. Cell number (FIG. 3, top) or percent transgenic cells (FIG. 3, bottom) were quantified using flow cytometry at 7 days.

[1] = target: T1, interleukin-6 receptor (IL-6R) (Homo sapiens, UniProt P08887); conditions: following CAR T-cell infusion; cited from earlier work
T1 construct: endogenous in cells; host or cells: subjects with cytokine release syndrome (in vivo)
T1 sequence (P08887 20-468): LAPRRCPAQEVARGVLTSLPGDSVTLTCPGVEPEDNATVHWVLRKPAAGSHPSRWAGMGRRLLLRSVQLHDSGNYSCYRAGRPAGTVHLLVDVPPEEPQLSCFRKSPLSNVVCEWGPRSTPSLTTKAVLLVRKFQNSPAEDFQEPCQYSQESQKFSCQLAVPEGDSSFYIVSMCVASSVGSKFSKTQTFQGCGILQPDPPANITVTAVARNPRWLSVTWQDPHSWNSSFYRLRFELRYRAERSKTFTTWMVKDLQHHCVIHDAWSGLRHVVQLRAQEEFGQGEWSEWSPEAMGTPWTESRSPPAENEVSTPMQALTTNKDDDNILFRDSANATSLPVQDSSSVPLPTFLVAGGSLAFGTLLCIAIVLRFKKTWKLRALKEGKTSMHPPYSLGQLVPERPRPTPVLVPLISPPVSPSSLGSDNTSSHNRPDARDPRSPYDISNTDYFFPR

TPO-R = target: T2, TPO-R (Homo sapiens, UniProt P40238); conditions: CART cells transduced with TPO-R; cited from earlier work
T2 construct: host or cells: CAR T cells transduced with TPO-R by other groups
T2 sequence (P40238 26-635): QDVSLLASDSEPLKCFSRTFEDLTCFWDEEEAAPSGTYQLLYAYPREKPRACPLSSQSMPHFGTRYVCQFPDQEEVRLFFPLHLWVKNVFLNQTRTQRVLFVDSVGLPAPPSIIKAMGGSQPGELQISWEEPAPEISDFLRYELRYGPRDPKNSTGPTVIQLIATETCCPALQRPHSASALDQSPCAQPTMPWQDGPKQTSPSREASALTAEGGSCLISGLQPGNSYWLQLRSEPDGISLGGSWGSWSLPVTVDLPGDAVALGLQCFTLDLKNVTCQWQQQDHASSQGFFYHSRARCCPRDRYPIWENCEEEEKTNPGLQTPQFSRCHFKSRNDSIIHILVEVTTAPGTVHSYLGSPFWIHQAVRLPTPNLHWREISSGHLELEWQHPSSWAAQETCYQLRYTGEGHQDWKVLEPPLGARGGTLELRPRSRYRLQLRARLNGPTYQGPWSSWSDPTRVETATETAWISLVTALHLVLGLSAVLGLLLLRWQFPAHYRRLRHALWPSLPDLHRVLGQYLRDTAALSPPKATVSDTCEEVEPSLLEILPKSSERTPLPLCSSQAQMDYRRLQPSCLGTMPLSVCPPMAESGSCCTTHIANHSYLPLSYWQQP

[2] = tested on: T cells transduced with reporter+TPO-R; assay: Expansion of TPO-R transduced T cells in vitro; format: cell-based, human; conditions: transduced using the MV pseudotyped lentivector; FIG. 2D
Excerpt: FIGS. 2A-2D: Transgenic TPO-R enables controllable T cell expansion. T cells were transduced with the reporter NGFR, or with reporter+the thrombopoietin receptor (TPOR) and stimulated with eltrombopag, a specific small molecule agonist of TPOR, in vitro. FIG. 2A: Cell number is shown to increase only in the presence of the TPOR agonist. […] FIG. 2C: All cells that express the reporter (tNGFR) also express the TPO receptor.
Recombinant erythropoietin (Epo) and G-CSF are commercially approved for the treatment for anemia of chronic kidney disease, and for chemotherapy-related neutropenia, respectively. Clinical development of a recombinant thrombopoietin (TPO) was superseded by two TPO receptor (TPO-R, also known as c-Mpl) peptidomimetic drugs that are now approved for the treatment of immune thrombocytopenic purpura (romiplostim, and eltrombopag). […] Results of the TPO-R experiments were recapitulated herein (FIGS. 2A-2D). T cells were transduced with the reporter NGFR, or with reporter+TPO-R and stimulated with eltrombopag, a specific small molecule agonist of TPOR, in vitro. […] In FIG. 2C, it is shown that there is a 1:1 expression of the reporter NGFR with the TPO receptor after 12 days of eltrombopag treatment.

[3] = tested on: T cells expressing the truncated NGFR; assay: Stimulation of negative control T cells (truncated NGFR) for 7 days, flow cytometry; format: cell-based, human; conditions: 0.1 μg/ml, FIG. 3 top
Procedure: as §1, §3

STAT3 and STAT5 = assay: Phosphorylation of STAT3 and STAT5 in TPOR expressing T cells, flow cytometry; format: cell-based, human; conditions: 0.1 μg/ml, 24 hours
Procedure: FIG. 5: TPOR stimulation leads to activation of STAT3 and STAT5. Healthy donor Tcells expressing TPOR or untransduced control T cells were stimulated for 24 hours with 5 ng/ml IL-2/IL-7/IL-15 (CK), 0.1 μg/ml TPO or 0.1 μg/ml Eltrombopag (EP). Following stimulation cells were fixed and the phosphorylation of STAT3 and STAT5 quantified using flow cytometry.
TPOR stimulation led to activation of STAT3 and STAT5 (FIG. 5). Healthy donor T cells expressing TPOR or untransduced control T cells were stimulated for 24 hours with 5 ng/ml IL-2/IL-7/IL-15 (CK), 0.1 μg/ml TPO, or 0.1 μg/ml Eltrombopag (EP). Following stimulation cells were fixed and the phosphorylation of STAT3 and STAT5 quantified using flow cytometry.

[4] = target: thrombopoietin receptor (TPOR) (UniProt P40238); assay: cell-based or functional assay
[5] = target: GCF receptor with a deletion at aa 715 (GCSFRd715) (UniProt Q99062); assay: cell-based or functional assay
Human T cells = assay: T cell expansion after MV pseudotyped lentiviral transduction with mbIL15; format: cell-based
Excerpt: FIGS. 1A-1E: Transgenic IL15 and IL15Ra-IL15 expression to enhances T cell proliferation. Human T cells were transduced with a measles virus (MV) pseudotyped lentiviral vector redirected specifically against human CD4, encoding the NGFR reporter alone (“no IL15 construct”), soluble IL15 along with the reporter, or membrane-bound IL15 along with the reporter. Transduction is shown in FIG. 1B, where the transgene is detected using a co-expressed reporter molecule (tNGFR). Quantification of soluble IL15 is depicted in FIG. 1C. No additional cytokine or stimulation signals were provided to the cells. Tcells express transgenic IL15 and IL15Ra-IL15. […].
IL15 is a homeostatic cytokine that is required for the maintenance of CD8+ memory Tcells and NK cells, and promotes anti-tumor activity. IL15 signals through the IL15 receptor which is composed of a specific alpha chain (IL15Rα or IL15Ra) along with the shared IL2Rb and common gamma chain. Previous work has shown that a membrane bound version of IL15 (mbIL15) can be created by fusing IL15 directly to IL15Rα via a flexible linker that promotes IL15 signaling to the expressing cell (PMID: 27849617, US 2016/0158285 A1) (SEQ ID NO: 1,see Table 1). Herein, it was shown that incorporating mbIL15 in the lentiviral transfer genome increases CAR-T cell numbers 10-fold in vitro (FIGS. 1A-1D). […]

[6] = tested on: T cells expressing GCSFRd715; assay: Stimulation of T cells expressing GCSFRd715 for 7 days, flow cytometry; format: cell-based, human
Procedure: as §1, §2, §3

GCF receptor with a deletion at aa 715 (GCSFRd715), sequence (Q99062 25-715 limits assumed, stated change not applied): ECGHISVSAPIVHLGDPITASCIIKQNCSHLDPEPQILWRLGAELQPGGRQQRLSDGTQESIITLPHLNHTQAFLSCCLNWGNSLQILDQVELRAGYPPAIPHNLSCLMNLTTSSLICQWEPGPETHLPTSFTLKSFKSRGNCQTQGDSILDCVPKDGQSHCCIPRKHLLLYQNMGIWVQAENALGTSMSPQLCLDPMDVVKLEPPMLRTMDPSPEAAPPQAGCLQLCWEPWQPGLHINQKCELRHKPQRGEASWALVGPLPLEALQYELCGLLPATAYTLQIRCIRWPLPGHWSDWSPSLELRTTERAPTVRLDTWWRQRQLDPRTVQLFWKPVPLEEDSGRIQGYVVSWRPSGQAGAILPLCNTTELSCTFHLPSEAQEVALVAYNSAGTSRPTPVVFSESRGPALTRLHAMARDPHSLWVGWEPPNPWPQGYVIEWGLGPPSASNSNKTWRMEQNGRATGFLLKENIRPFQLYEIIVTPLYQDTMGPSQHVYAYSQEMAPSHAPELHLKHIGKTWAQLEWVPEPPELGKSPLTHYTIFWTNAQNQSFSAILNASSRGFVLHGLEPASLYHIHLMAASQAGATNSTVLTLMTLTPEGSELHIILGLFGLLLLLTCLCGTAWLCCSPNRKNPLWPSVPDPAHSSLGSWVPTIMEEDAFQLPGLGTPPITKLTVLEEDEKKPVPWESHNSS

## CC1=NN(c2ccc(C)c(C)c2)C(=O)/C1=N\Nc1cccc(-c2cccc(C(=O)O)c2)c1O [EP, eltrombopag, reference compound]
T cells expressing TPOR
  TPOR fraction after addition: 55.9%

## tocilizumab: humanized monoclonal antibody against the interleukin-6 receptor (IL-6R)
[1]
  reversal of CRS: near-immediate reversal of CRS

## thrombopoietin [TPO]
TPO-R
  proliferation and anti-tumor functions: superior proliferation and anti-tumor functions
[2]
  expansion of non-activated (resting) cells: led to expansion; also recorded: expand selectively
[3]
  response to stimulation (cell number): did not respond
T cells expressing TPOR
  TPOR fraction after addition: 82%
T cells expressing TPOR; TPOR cells, FIG. 3 top
  response to stimulation (cell number): responded
STAT3 and STAT5
  phosphorylation of STAT3 and STAT5: leads to STAT5 and STAT3 phosphorylation; also recorded: lead to the expected STAT5 and STAT3 phosphorylation

## recombinant thrombopoietin (TPO) (from UniProt P40225 22-353) (ligand)
[4]
  transgenic cell fraction after 7 days (flow cytometry): 82%

## Granulocyte Colony Stimulating Factor (G-CSF) (from UniProt P09919 31-204) (ligand)
[5]
  transgenic cell fraction after 7 days (flow cytometry): 64.9%

## mbIL15: membrane bound version of IL15: IL15 fused directly to IL15Rα via a flexible linker (SEQ ID NO: 1)
Human T cells; in vitro, mbIL15 in the lentiviral transfer genome
  increase of CAR-T cell numbers: 10 fold
Human T cells; no additional cytokine or stimulation signals, FIG. 1D
  cell number (expansion): superior expansion

B1: GCSF: Granulocyte Colony Stimulating Factor, cognate cytokine of GCSFRd715 (protein)
chain: TPLGPASSLPQSFLLKCLEQVRKIQGDGAALQEKLCATYKLCHPEELVLLGHSLGIPWAPLSSCPSQALQLAGCLSQLHSGLFLYQGLLQALEGISPELGPTLDTLQLDVADFATTIWQQMEELGMAPALQPTQGAMPAFASAFQRRAGGVLVASHLQSFLEVSYRVLRHLAQP
[6]; 0.1 μg/ml, enriched from 15.6%, FIG. 4 top panel
  GCSFRd715 transgenic cell fraction after addition: 64.9%
[6]; GCSFRd715 cells, 0.1 μg/ml, FIG. 3 top
  response to stimulation (cell number): responded
[6]; GCSFRd715 cells, FIG. 3 bottom
  relative enrichment of transgenic cells (percent transgenic cells): Relative enrichment
[3]
  response to stimulation (cell number): did not respond
